Test results reported in patent publication US20030096237A1, “Determination of the ability of patients to respond to a tumor treatment” (priority 2000, published 2003).

Tested on: melanoma cell lines
Experiment: oligonucleotide array, expression of genes encoding tumor associated antigens
Assay type: cell-based, human
Details: six melanoma cell lines, 48 hours, 100 U/ml IFN-α
Description: The cell lines CNCM I-2544 (375), CNCM I-2545 (D10), CNCM I-2546 (15), CNCM I-2547 (51), CNCM I-2548 (59) and CNCM I-2549 (67) were cultured for 48 hours in the presence (+) or absence (−) of 100 U/ml IFN-α. The expression patterns of genes encoding tyrosinase, tyrosinase related protein-2 , pmel-17 and mart-1, HLA restricted, tumor associated antigens are reported. Grey bars refer to IFN-α sensitive cell lines and black bars refer to IFN-α resistant lines (see Table 1). Data are presented as average difference of signal intensity between match and mismatch probesets.
Cultured melanoma cells were harvested by scraping and total cellular RNA was extracted. […]
The normalized average difference (nAD) between the signals of the perfect and of the mismatch probesets for each gene was used as the expression level of a given gene. […] Based on nAD, change factors related to IFN-α exposure were also calculated. […]
Total cellular RNA was extracted from the sensitive and resistant melanoma cell lines identified above, reverse transcribed and processed for hybridization to an oligonucleotide array (Hu6800FL, PN 900183) containing probe sets derived from 7000 full-length human genes. Expression levels for each gene were calculated as normalized average difference (nAD, see materials and methods). […]

IFN-α
expression of the genes encoding TAA (MART-1/Melan-A, pmel-17, TRP-2, tyrosinase): does not appear to influence
